The values that follow come from ChEMBL document CHEMBL1909496, “Malabaricone C from Myristica cinnamomea exhibits anti-quorum sensing activity” (J Nat Prod, 2011).

Series [1] concerns Pseudomonas aeruginosa PAO1. Nature of the series: Inhibition of Pseudomonas aeruginosa PAO1 quorum sensing assessed as reduction of biofilm formation at 1 mg/ml after 18 hrs using crystal violet staining.
The subject of series [2] is Pseudomonas aeruginosa PAO1. Nature of the series: Inhibition of Pseudomonas aeruginosa PAO1 quorum sensing assessed as reduction of biofilm formation at 2 mg/ml after 18 hrs using crystal violet staining.
Series [3] concerns Pseudomonas aeruginosa PAO1. Nature of the series: Inhibition of Pseudomonas aeruginosa PAO1 quorum sensing assessed as reduction of biofilm formation at 3 mg/ml after 18 hrs using crystal violet staining.
Another series deals with Pseudomonas aeruginosa. Description: Toxicity in Pseudomonas aeruginosa PAO1 quorum sensing assessed as cell viability. The class given is organism-based.
The test system of series [4] is Pseudomonas aeruginosa PAO1. Nature of the series: Inhibition of Pseudomonas aeruginosa PAO1 quorum sensing assessed as inhibition of pycocyanin production at >/= 0.1 mg/ml after overnight incubation.
For series [5], the system named is Pseudomonas aeruginosa PAO1. Description: Inhibition of LuxR-dependent quorum sensing in Pseudomonas aeruginosa PAO1 assessed as inhibition of autoinducer production.
In series [6] the test system is Chromobacterium violaceum. Description: Inhibition of Chromobacterium violaceum CV026 quorum sensing assessed as N-3-oxohexanoyl-homoserine lactone-induced violacein production at 3 mg/ml relative to control.

The structures appear in SMILES notation. Calls of active or inactive are those of the source. The rule behind the calls is not given here.

The inhibition is how much of the control response was suppressed. For the molecule `Oc1cc(O)c2c(c1)O[C@H](c1ccc(O)c(O)c1)[C@@H](O)C2`, the inhibition result in series [1], in series [2] and in series [3] was “Active” throughout.
Take `O=C(CCCCCCCCc1ccc(O)c(O)c1)c1c(O)cccc1O` [MALABARICONE C]: the figures for the inhibition in series [1], in series [2] and in series [3] were 44.9%, 63% and 69.4%, respectively. Also, the Activity entry with Pseudomonas aeruginosa is “Non-toxic”. Also, the inhibition entry in series [4] and in series [6] was “Active” each time. Further, the inhibition result in series [5] is “inactive”.
